Measurements published in ChEMBL document CHEMBL1909046, “DrugMatrix in vitro pharmacology data”.

What was measured:
[1] = DRUGMATRIX: Phosphodiesterase PDE4 enzyme inhibition (substrate: [3H]cAMP + cAMP); details: u-937; Not Active = under 50% inhibition at 10 µM
[2] = DRUGMATRIX: Sigma2 radioligand binding (ligand: [3H] Ifenprodil); type: cell membranes, Rattus norvegicus, Wistar, Brain, Membrane; details: Not Active = under 50% inhibition at 10 µM
Substance-K receptor = target: T1, Substance-K receptor (Homo sapiens, UniProt P21452); type: cell membranes, CHO, Membrane; details: cho; note: in other assays of this panel Not Active means under 50% inhibition at 10 µM
T1 sequence (P21452 whole entry): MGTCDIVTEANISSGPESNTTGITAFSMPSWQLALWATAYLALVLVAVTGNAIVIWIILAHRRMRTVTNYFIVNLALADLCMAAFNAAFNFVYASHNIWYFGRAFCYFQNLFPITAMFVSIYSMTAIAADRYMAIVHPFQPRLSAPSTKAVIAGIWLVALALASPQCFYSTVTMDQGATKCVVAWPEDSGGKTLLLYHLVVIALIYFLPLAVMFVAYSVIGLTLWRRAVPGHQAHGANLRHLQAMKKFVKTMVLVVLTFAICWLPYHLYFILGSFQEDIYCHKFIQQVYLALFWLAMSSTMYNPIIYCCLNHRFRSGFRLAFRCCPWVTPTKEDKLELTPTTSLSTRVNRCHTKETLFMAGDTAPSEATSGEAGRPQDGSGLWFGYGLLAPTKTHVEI

[3] = DRUGMATRIX: Glutamate, NMDA, Agonism radioligand binding (ligand: [3H] CGP-39653); type: cell membranes, Rattus norvegicus, Wistar, Cerebral cortex, Membrane; details: Not Active = under 50% inhibition at 10 µM
Mu-type opioid receptor = Mu-type opioid receptor (Homo sapiens, UniProt P35372); test: DRUGMATRIX: Opiate mu (OP3, MOP) radioligand binding (ligand: [3H] Diprenorphine); type: cell membranes, CHO-K1, Membrane; details: cho-k1; Not Active = under 50% inhibition at 10 µM
[4] = DRUGMATRIX: Interleukin IL-1 radioligand binding (ligand: [125I] interleukin 1beta); type: cell membranes, Membrane; details: nih3t3; Not Active = under 50% inhibition at 10 µM
Leukotriene C4 synthase = target: T2, Leukotriene C4 synthase (Cavia porcellus, UniProt A6XA80); type: tissue-based, Lung;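 note: enzyme inhibition assay of leukotriene C4 synthase, using LTA4 as the substrate; in other assays of this panel Not Active means under 50% inhibition at 10 µM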
T2 sequence (A6XA80 whole entry): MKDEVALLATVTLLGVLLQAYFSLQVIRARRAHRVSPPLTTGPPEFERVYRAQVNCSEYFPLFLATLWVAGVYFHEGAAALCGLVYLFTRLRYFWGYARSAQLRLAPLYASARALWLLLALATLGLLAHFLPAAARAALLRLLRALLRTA

Mu-type opioid receptor, sequence (P35372 whole entry): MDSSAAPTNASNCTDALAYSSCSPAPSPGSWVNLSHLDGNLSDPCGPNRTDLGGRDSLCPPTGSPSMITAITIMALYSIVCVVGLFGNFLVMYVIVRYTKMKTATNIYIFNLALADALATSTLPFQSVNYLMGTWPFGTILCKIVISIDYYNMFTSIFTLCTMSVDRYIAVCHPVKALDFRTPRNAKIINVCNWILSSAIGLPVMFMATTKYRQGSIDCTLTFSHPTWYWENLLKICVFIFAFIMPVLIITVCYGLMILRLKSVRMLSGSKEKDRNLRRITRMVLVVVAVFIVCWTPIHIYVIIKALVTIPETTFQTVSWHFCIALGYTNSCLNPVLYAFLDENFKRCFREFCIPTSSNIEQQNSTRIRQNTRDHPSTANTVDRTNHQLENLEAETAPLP

Row | SMILES | IC50 [1] | Ki [1] | IC50 [2] | Ki [2] | IC50 (Substance-K receptor) | IC50 [3] | Ki [3] | IC50 (Mu-type opioid receptor) | IC50 [4] | Ki [4] | IC50 (Leukotriene C4 synthase) | IC50 ([2]; read-out: IC50) [µM] | Ki ([2]; read-out: Ki) [µM]
1 | Nc1nc2c(ncn2CCC(CO)CO)c(=O)[nH]1 [PENCICLOVIR] | Not Active | Not Active | Not Active | Not Active | Not Active | Not Active | Not Active | Not Active | Not Active | Not Active | Not Active | – | –
2 | C=C(C)C1(O)OC(=O)C=C1OC (stereo not given) [PENICILLIC ACID] | Not Active | Not Active | Not Active | Not Active | Not Active | Not Active | Not Active | Not Active | Not Active | Not Active | Not Active | – | –
3 | CC1(C)S[C@@H]2[C@H](NC(=O)Cc3ccccc3)C(=O)N2[C@H]1C(=O)O [PENICILLIN G] | Not Active | Not Active | Not Active | Not Active | Not Active | Not Active | Not Active | Not Active | Not Active | Not Active | Not Active | – | –
4 | CCCN1C[C@H](CSC)C[C@@H]2c3cccc4[nH]cc(c34)C[C@H]21 [PERGOLIDE] | Not Active | Not Active | Not Active | Not Active | Not Active | Not Active | Not Active | Not Active | Not Active | Not Active | Not Active | – | –
5 | C1CCC(C(CC2CCCCN2)C2CCCCC2)CC1 (stereo not given) [PERHEXILINE] | Not Active | Not Active | Not Active | Not Active | Not Active | Not Active | Not Active | Not Active | Not Active | Not Active | Not Active | – | –
6 | CCOc1ccc(NC(C)=O)cc1 [PHENACETIN] | Not Active | Not Active | Not Active | Not Active | Not Active | Not Active | Not Active | Not Active | Not Active | Not Active | Not Active | – | –
7 | Cc1ccc(N(CC2=NCCN2)c2cccc(O)c2)cc1 [PHENTOLAMINE] | Not Active | Not Active | Not Active | Not Active | Not Active | Not Active | Not Active | Not Active | Not Active | Not Active | Not Active | – | –
8 | CNNCc1ccc(C(=O)NC(C)C)cc1 [PROCARBAZINE] | Not Active | Not Active | Not Active | Not Active | Not Active | Not Active | Not Active | Not Active | Not Active | Not Active | Not Active | – | –
9 | CN(C)CCCN1c2ccccc2Sc2ccccc21 [PROMAZINE] | Not Active | Not Active | – | – | Not Active | Not Active | Not Active | Not Active | Not Active | Not Active | Not Active | 2.54 | 1.56
10 | CC(O)CO (stereo not given) [PROPYLENE GLYCOL] | Not Active | Not Active | Not Active | Not Active | Not Active | Not Active | Not Active | Not Active | Not Active | Not Active | Not Active | – | –
